The subject of assay [1] is HCT-116. As to the kind of experiment: Growth inhibition of human p53 knockdown HCT116 cells after 48 hrs by Hoechst 33258 staining based fluorescence assay. It counts as functional. As to conditions: HCT-116, 48 h.
Assay [2] deals with HCT-116. As to the kind of experiment: Growth inhibition of human HCT116 cells harboring p53+/+ after 48 hrs by Hoechst 33258 staining based fluorescence assay. It counts as functional. As to conditions: HCT-116, 48 h.
The next assay relates to U2OS. As to the kind of experiment: Induction of apoptosis in human U2OS cells at 10 uM after 24 hrs by Annexin V-FITC/propidium iodide based FACS analysis (Rvb= 0.1%). Type of assay: functional. (In general: Flow cytometry measures light scatter and fluorescence of single cells or particles in a stream.)
Assay [3] concerns HCT-116. Description: Selectivity ratio of GI50 for human p53 knockdown HCT116 cells to GI50 for human HCT116 cells harboring p53+/+. It counts as functional.
Assay [4] concerns the target Tumour suppressor p53/oncoprotein Mdm2 (Homo sapiens) (UniProt P04637+Q00987). As to the kind of experiment: Inhibition of MDM2/p53 in human HCT116 cells at 10 uM after 24 hrs by Western blot method. It counts as cell-based. (In general: In western blotting, separated proteins are transferred to a membrane and probed.)

Activity calls are given as the source filed them. No cut-off for these calls is given here. Bounds are passed on as bounds.

In general, GI50 refers to the concentration at which growth is held to half of that of the control. A lower GI50 goes with greater sensitivity of the cells.

Sequence of Tumour suppressor p53/oncoprotein Mdm2 (Homo sapiens) (P04637 whole entry, looked up): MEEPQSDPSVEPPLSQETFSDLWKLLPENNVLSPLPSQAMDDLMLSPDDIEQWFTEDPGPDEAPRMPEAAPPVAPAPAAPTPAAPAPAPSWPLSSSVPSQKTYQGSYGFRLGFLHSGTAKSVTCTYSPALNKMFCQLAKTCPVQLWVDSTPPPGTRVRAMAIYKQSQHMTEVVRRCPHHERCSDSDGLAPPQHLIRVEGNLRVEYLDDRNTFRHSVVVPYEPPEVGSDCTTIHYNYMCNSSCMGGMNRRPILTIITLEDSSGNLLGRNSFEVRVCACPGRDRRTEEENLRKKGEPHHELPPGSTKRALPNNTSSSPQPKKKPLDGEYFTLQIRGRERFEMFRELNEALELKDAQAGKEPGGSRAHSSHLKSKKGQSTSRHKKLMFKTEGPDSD
Sequence of Tumour suppressor p53/oncoprotein Mdm2 (Homo sapiens) (Q00987 whole entry, looked up): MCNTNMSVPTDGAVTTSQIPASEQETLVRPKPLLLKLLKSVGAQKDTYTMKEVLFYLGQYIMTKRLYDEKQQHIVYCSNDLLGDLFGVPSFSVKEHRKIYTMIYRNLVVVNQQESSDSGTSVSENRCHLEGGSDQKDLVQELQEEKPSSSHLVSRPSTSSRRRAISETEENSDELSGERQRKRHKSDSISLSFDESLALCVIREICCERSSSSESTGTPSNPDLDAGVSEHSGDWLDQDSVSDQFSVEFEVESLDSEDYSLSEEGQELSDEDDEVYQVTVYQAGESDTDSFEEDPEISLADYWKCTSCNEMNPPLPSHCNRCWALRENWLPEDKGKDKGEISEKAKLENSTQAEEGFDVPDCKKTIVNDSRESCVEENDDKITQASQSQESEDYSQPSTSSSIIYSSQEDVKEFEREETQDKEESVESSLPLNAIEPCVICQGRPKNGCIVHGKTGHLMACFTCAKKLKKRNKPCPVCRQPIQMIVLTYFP

Regarding `CC(C)[C@H](N)C(=O)OCC(C)(C)COC1(c2ccc(Cl)cc2)c2ccccc2C(=O)N1Cc1ccc(Cl)cc1` (stereo not given in full), the GI50 in the assay with HCT-116 [1] came out at 40 µM; in the assay on HCT-116 [2], 11 µM.
Turning to `COc1ccc(C2=N[C@@H](c3ccc(Cl)cc3)[C@@H](c3ccc(Cl)cc3)N2C(=O)N2CCNC(=O)C2)c(OC(C)C)c1` [NUTLIN-3], the results for the GI50 with HCT-116 [1] and in the assay on HCT-116 [2] were 27 µM and 8 µM, respectively. In addition, the Activity with U2OS is 31%.
As to `N[C@H](C(=O)OCCCOC1(c2ccc(Cl)cc2)c2ccccc2C(=O)N1Cc1ccc(Cl)cc1)c1ccccc1` (stereo not given in full), the 50% growth inhibitory concentration (GI50) stood at 45 µM in the assay on HCT-116 [1] and 12 µM with HCT-116 [2].
Taken in the same sequence, the figures for `CC(=O)OCCCOC1(c2ccc(Cl)cc2)c2ccccc2C(=O)N1Cc1ccccc1` (stereo not given) were 80 µM and 50 µM.
`CC(C)(COC(=O)[C@@H](N)c1ccccc1)COC1(c2ccc(Cl)cc2)c2ccccc2C(=O)N1Cc1ccc(Cl)cc1` (stereo not given in full): in the assay on HCT-116 [3], the RatioGI50 entry was “<=4.75”. Further, the figures for the GI50 with HCT-116 [1] and with HCT-116 [2] were 38 µM and 8 µM, respectively. Also, the inhibition result in assay [4] was “Active”. In the assay with U2OS, the Activity is given as 33.1%.
For the molecule `CC(C)(CO)COC1(c2ccc(Cl)cc2)c2ccccc2C(=O)N1Cc1ccccc1` (stereo not given), the figures for the GI50 in the assay with HCT-116 [1] and with HCT-116 [2] were 82 µM and 71 µM, respectively.
In the case of `CC(C)(CO)COC1(c2ccc(Cl)cc2)c2ccccc2C(=O)N1Cc1ccc(Cl)cc1` (stereo not given), the GI50 with HCT-116 [1] stood at 65 µM; in the assay on HCT-116 [2] it was 50 µM. Also, in assay [4], the inhibition entry is “Active”. The molecule further yielded an Activity in the assay on U2OS of 2%.
As to `N[C@H](C(=O)OCCCOC1(c2ccc(Cl)cc2)c2ccccc2C(=O)N1Cc1ccccc1)c1ccccc1` (stereo not given in full), the concentration for 50% growth inhibition (GI50) amounted to 43 µM with HCT-116 [1] and 14 µM in the assay on HCT-116 [2].
Taken in the same sequence, the figures for `CC(=O)OCC(C)(C)COC1(c2ccc(Cl)cc2)c2ccccc2C(=O)N1Cc1ccc(Cl)cc1` (stereo not given) were 70 µM and 35 µM.
The like results for `CC(=O)OCC(C)(C)COC1(c2ccc(Cl)cc2)c2ccccc2C(=O)N1Cc1ccccc1` (stereo not given) were, in that order, 70 µM and 38 µM.
Taken in the same sequence, the figures for `CC(C)[C@H](N)C(=O)OCC(C)(C)COC1(c2ccc(Cl)cc2)c2ccccc2C(=O)N1Cc1ccccc1` (stereo not given in full) were 65 µM and 20 µM.
For `O=C1c2ccccc2C(OCCCO)(c2ccc(Cl)cc2)N1Cc1ccccc1` (stereo not given), the GI50 in the assay with HCT-116 [1] stood at 90 µM; with HCT-116 [2], 79 µM.
With `CC(C)(COC(=O)[C@@H](N)c1ccccc1)COC1(c2ccc(Cl)cc2)c2ccccc2C(=O)N1Cc1ccccc1` (stereo not given in full), the figures for the GI50 with HCT-116 [1] and in the assay with HCT-116 [2] were 44 µM and 15 µM, respectively.
The like results for `O=C1c2ccccc2C(OCCCO)(c2ccc(Cl)cc2)N1Cc1ccc(Cl)cc1` (stereo not given) were, in that order, 68 µM and 60 µM.
With `CC(C)[C@H](N)C(=O)OCCCOC1(c2ccc(Cl)cc2)c2ccccc2C(=O)N1Cc1ccccc1` (stereo not given in full), the 50% growth inhibitory concentration (GI50) in the assay on HCT-116 [1] is 65 µM; with HCT-116 [2] it was 20 µM.
Regarding `CC(C)[C@H](N)C(=O)OCCCOC1(c2ccc(Cl)cc2)c2ccccc2C(=O)N1Cc1ccc(Cl)cc1` (stereo not given in full), the concentration for 50% growth inhibition (GI50) turned out to be 60 µM with HCT-116 [1] and 16 µM with HCT-116 [2].
In the case of `CC(=O)OCCCOC1(c2ccc(Cl)cc2)c2ccccc2C(=O)N1Cc1ccc(Cl)cc1` (stereo not given), the GI50 in the assay with HCT-116 [1] worked out at 68 µM; with HCT-116 [2] it was 46 µM.

The values are drawn from ChEMBL document CHEMBL4177637, “Proapoptotic modification of substituted isoindolinones as MDM2-p53 inhibitors” (2017).
